In patent publication US6737383B1, “Herbicidal oxadiazolidines” (priority 1999, dated 2004):

What was measured:
[1] = tested on: winter wheat; assay: Test E winter wheat; type: in vivo, Triticum aestivum; settings: Preemergence
[2] = tested on: winter wheat; assay: Test E winter wheat; type: in vivo, Triticum aestivum; settings: Postemergence
Summary of the method: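 Greenhouse test: compounds in non-phytotoxic solvent with surfactant; for postemergence, sprayed on plants at 1- to 4-leaf stage grown in 60:40 sandy loam/potting mix. Injury rated visually against untreated controls after about 21 to 28 days.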

[3] = tested on: sugar beet; assay: Test B pre/postemergence sugar beet; type: in vivo, Beta vulgaris; settings: for Sugarbeets plant response rating (0 to 10 scale): 0 is no effect
Summary of the method: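 Response is a visual 0-to-10 score relative to untreated plants, where 0 means no effect and 10 means complete control, taken twelve to sixteen days after application. Treatments went onto soil at planting and onto foliage of 1- to 4-leaf plants, using a surfactant-containing non-phytotoxic solvent.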

[4] = tested on: bamyardgrass; assay: Test B flood test barnyardgrass; type: in vivo, Echinochloa crus-galli; settings: for Plant response rating, Barnyardgrass: Rate 500 g/ha
Summary of the method: (§1)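 Read-out is a visual response score from 0 (no effect) to 10 (complete control), assigned by comparison with untreated controls. Treatment was applied at the 2-leaf stage, and plants stayed in the greenhouse for twelve to sixteen days before scoring.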

[5] = tested on: smallflower flatsedge; assay: Test B flood test smallflower flatsedge; type: in vivo, Cyperus difformis
Summary of the method: as §1

[6] = tested on: rice; assay: Test B flood test rice; type: in vivo, Oryza sativa; settings: for Plant response rating, Rice: Rate 500 g/ha
Summary of the method: as §1

[7] = tested on: blackgrass; assay: Test E blackgrass; type: in vivo, Alopecurus myosuroides; settings: Preemergence
[8] = tested on: wild oat; assay: Test E wild oat; type: in vivo, Avena fatua; settings: Preemergence
[9] = tested on: Italian ryegrass; assay: Test E Italian ryegrass; type: in vivo, Lolium multiflorum; settings: Preemergence
[10] = tested on: duck salad; assay: Test B flood test duck salad; type: in vivo, Heteranthera limosa; settings: for Plant response rating, Ducksalad: Rate 500 g/ha
Summary of the method: as §1

[11] = tested on: green foxtail; assay: Test E green foxtail; type: in vivo, Setaria viridis; settings: Preemergence
[12] = tested on: winter barley; assay: Test E winter barley; type: in vivo, Hordeum vulgare; settings: Preemergence
[13] = Rate 500 g/ha, 0 to 100 scale where 0 is no effect and 100 is complete control
[14] = Preemergence, Rate 125 g/ha, 10 is complete control
[15] = Preemergence, Rate 500 g/ha, scale 0 to 10 (0 no effect, 10 complete control)
[16] = Rate 62 g/ha, Postemergence, scale of 0 to 10 where 0 is no effect and 10 is complete control
[17] = Rate 250 g/ha, headed Pre-emergence (flood test species), scale 0 to 10 (0 no effect, 10 complete control)
[18] = headed Pre-emergence (flood test species), scale 0 to 10 (0 no effect, 10 complete control)
[19] = Rate 1000 g/ha, Pre-emergence (as headed), scale 0 to 10
[20] = Rate 2000 g/ha, Pre-emergence (as headed), scale 0 to 10
[21] = Rate 125 g/ha, 0 to 100 scale (0 no effect, 100 complete control)
[22] = Rate 62 g/ha, headed Pre-emergence (flood test species), scale 0 to 10 (0 no effect, 10 complete control)
[23] = Rate 125 g/ha, Pre-emergence, flood test species, scale 0 to 10 where 0 is no effect and 10 is complete control
[24] = Rate 250 g/ha, Pre-emergence, flood-test species, scale 0 to 10, 0 is no effect, 10 is complete control

CC(C)N(C(=O)n1oc(=O)n(C(C)(C)C)c1=O)c1ccc(Cl)cc1 [Compound 118]
Plant response rating, Wheat (winter) ([1]; Rate 250 g/ha, 0 to 100 scale): 50 | Plant response rating, Wheat (winter) [1, 13]: 70 | Plant response rating, Wheat (winter) ([2]; Rate 250 g/ha, 0 to 100 scale (0 no effect, 100 complete control)): 65 | Plant response rating, Wheat (winter) ([2]; Rate 500 g/ha, 0 to 100 scale, 0 no effect, 100 complete control): 70 | Sugarbeets plant response rating ([3]; Postemergence, Rate 125 g/ha, scale of 0 to 10 where 0 is no effect and 10 is complete control): 0 | Sugarbeets plant response rating ([3]; Preemergence, Rate 62 g/ha, scale 0 to 10 (0 no effect, 10 complete control)): 0 | Sugarbeets plant response rating (0 to 10 scale) [3, 14]: 0 | Plant response rating, Sugarbeets ([3]; Preemergence, Rate 250 g/ha, scale of 0 to 10 where 0 is no effect and 10 is complete control): 0 | Sugarbeets plant response rating [3, 15]: 0 | Sugarbeets plant response rating [3, 16]: 0 | Plant response rating, Sugarbeets ([3]; Rate 250 g/ha, Postemergence, scale 0 to 10, 0 is no effect, 10 is complete control): 0 | Sugarbeets plant response rating ([3]; Rate 500 g/ha, Postemergence, scale 0 to 10, 0 no effect, 10 complete control): 2 | Barnyardgrass plant response rating [4, 17]: 0 | Plant response rating, Barnyardgrass [4, 18]: 1 | Barnyardgrass plant response rating [4, 19]: 3 | Barnyardgrass plant response rating ([4]; Rate 2000 g/ha, Pre-emergence (as headed), scale 0 to 10, 0 no effect, 10 complete control): 6 | S. Flatsedge plant response rating ([5]; Pre-emergence, Rate 1000 g/ha, scale 0 to 10 (0 no effect, 10 complete control)): 0 | S. Flatsedge plant response rating [5, 17]: 0 | Plant response rating, S. Flatsedge ([5]; Rate 500 g/ha, headed Pre-emergence (flood test species), scale 0 to 10 (0 no effect, 10 complete control)): 0 | S. Flatsedge plant response rating [5, 20]: 0 | Rice plant response rating [6, 17]: 0 | Plant response rating, Rice [6, 18]: 0 | Rice plant response rating [6, 19]: 0 | Rice plant response rating [6, 20]: 0 | Plant response rating, Blackgrass ([7]; Rate 250 g/ha, 0 to 100 scale): 80 | Plant response rating, Blackgrass [7, 13]: 100 | Plant response rating, Wild oat [8, 13]: 70 | Plant response rating, I. Ryegrass ([9]; Rate 250 g/ha, 0 to 100 scale): 60 | Plant response rating, I. Ryegrass [9, 13]: 60 | Ducksalad plant response rating [10, 17]: 0 | Plant response rating, Ducksalad [10, 18]: 0 | Ducksalad plant response rating [10, 19]: 0 | Ducksalad plant response rating [10, 20]: 0 | Plant response rating, Green foxtail ([11]; Rate 250 g/ha, 0 to 100 scale): 55 | Plant response rating, Green foxtail [11, 13]: 65 | Plant response rating, Barley (winter) ([12]; Rate 250 g/ha, 0 to 100 scale): 65 | Plant response rating, Barley (winter) [12, 13]: 50

Cc1nc(C)c(Cn2c(=O)on(C(=O)N(c3ccc(F)cc3)C(C)C)c2=O)s1 [Compound 192]
Plant response rating, Wheat (winter) [1, 21]: 10 | Plant response rating, Wheat (winter) [1, 13]: 40 | Plant response rating, Wheat (winter) ([2]; Rate 125 g/ha, 0 to 100 scale): 30 | Plant response rating, Wheat (winter) ([2]; Rate 500 g/ha, 0 to 100 scale, 0 is no effect, 100 is complete control): 50 | Sugarbeets plant response rating ([3]; Preemergence, Rate 62 g/ha, scale of 0 to 10 where 0 is no effect and 10 is complete control): 0 | Sugarbeets plant response rating (0 to 10 scale) [3, 14]: 0 | Sugarbeets plant response rating ([3]; Preemergence, Rate 250 g/ha, scale 0 to 10, 0 is no effect, 10 is complete control): 0 | Sugarbeets plant response rating [3, 15]: 8 | Sugarbeets plant response rating [3, 16]: 0 | Sugarbeets plant response rating ([3]; Rate 125 g/ha, Postemergence, scale 0 to 10): 0 | Plant response rating (0 to 10; 0 is no effect, 10 is complete control), Sugarbeets ([3]; Rate 250 g/ha, Postemergence): 0 | Sugarbeets plant response rating ([3]; Rate 500 g/ha, Postemergence, scale 0 to 10): 5 | Barnyardgrass plant response rating [4, 22]: 0 | Barnyardgrass plant response rating [4, 23]: 0 | Barnyardgrass plant response rating [4, 24]: 0 | Plant response rating, Barnyardgrass [4, 18]: 0 | S. Flatsedge plant response rating [5, 22]: 0 | S. Flatsedge plant response rating [5, 23]: 0 | S. Flatsedge plant response rating [5, 24]: 0 | S. Flatsedge plant response rating ([5]; Rate 500 g/ha, Pre-emergence, flood test species, scale 0 to 10 (0 no effect, 10 complete control)): 0 | Rice plant response rating [6, 22]: 0 | Rice plant response rating [6, 23]: 0 | Rice plant response rating [6, 24]: 0 | Plant response rating, Rice [6, 18]: 0 | Plant response rating, Blackgrass [7, 21]: 40 | Plant response rating, Blackgrass [7, 13]: 50 | Plant response rating, Wild oat [8, 21]: 30 | Plant response rating, Wild oat [8, 13]: 55 | Plant response rating, I. Ryegrass [9, 21]: 20 | Plant response rating, I. Ryegrass [9, 13]: 60 | Ducksalad plant response rating [10, 22]: 0 | Ducksalad plant response rating [10, 23]: 0 | Ducksalad plant response rating [10, 24]: 0 | Plant response rating, Ducksalad [10, 18]: 0 | Plant response rating, Green foxtail [11, 21]: 50 | Plant response rating, Green foxtail [11, 13]: 65 | Plant response rating, Barley (winter) [12, 21]: 20 | Plant response rating, Barley (winter) [12, 13]: 30
